Experimental data published in PubChem BioAssay AID977625 (Broad Institute, 2014).
Records with an inconclusive call do not appear. The source made the active and inactive calls.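 Rule for the calls: active = red signal from normal-ribosome E. coli cut at least twice as much as green humanized-ribosome signal, growth cut under 30%; inconclusive = no clear call, values can overlap the other calls; inactive = the rest.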

Experiments:
[1] = tested on: E. coli mixed culture (wild-type RFP + h34-humanized GFP), total OD600 growth, 24 h; assay: selective ribosome h34 site antibacterial activity – h34 mutant GFP vs wild-type RFP, cherry-pick, OD600, dose response (AID 977625); details: E. coli h34-humanized GFP strain growth, fluorescence, 24 h; measured here: total culture OD600 growth
[2] = as above; details: E. coli h34-humanized GFP strain growth, fluorescence, 24 h; at 50 µM (top of the series)
[3] = tested on: E. coli h34-humanized GFP strain growth, fluorescence, 24 h; assay: as above

O=C(O)c1cc([N+](=O)[O-])ccc1NCc1ccccc1
AC50 [1]: 20.1 µM

Cc1ccc(S(=O)(=O)N2CC[C@H]3[C@H](CO)Nc4ccc(Br)cc4[C@H]32)cc1
activity change, negative = inhibition [2]: 7.09 (inactive)

CCn1c(-c2cc(-c3ccc(OC(C)C)cc3)nc3ccccc23)n[nH]c1=S
AC50 [3]: > 100 µM (inactive)

COc1ccc(Cn2c(-c3ccc(Cl)cc3)c[n+]3ccccc23)cc1
activity change, negative = inhibition [2]: 30.2 (inactive)

COc1ccc(-n2cc(-c3ccccc3)c3c(N4CCOCC4)ncnc32)cc1
AC50 [3]: > 100 µM (inactive)
AC50 [1]: 42.2 µM

CC1(Cc2ccccc2C#N)C(=O)Nc2cc(-c3ccccc3Cl)ccc21 (stereo unspecified)
AC50 [1]: 24.8 µM

Cc1noc(C)c1NC(=O)Nc1ccc2c(c1)C(=O)N([C@H](C)CO)C[C@@H](C)[C@@H](CN(C)C(=O)Nc1ccc3c(c1)OCO3)OCCCC[C@@H](C)O2
activity change, negative = inhibition [2]: 0.093 (inactive)

Cc1ccc(C)c(NC(=O)CSc2nc3nc(-c4cccs4)cc(C(F)(F)F)c3c(=O)[nH]2)c1
activity change, negative = inhibition [2]: -48.2 (inactive)
AC50 [1]: 36.2 µM

COc1cccc(C(=O)Nc2cc(C)nn2-c2ccccc2)c1OC
activity change, negative = inhibition [2]: 18.9 (inactive)
AC50 [1]: > 100 µM

CCN(CC)CCn1c2ccccc2c2nc3ccc([N+](=O)[O-])cc3cc21
AC50 [3]: 1.39 µM (inactive)
AC50 [1]: 4.35 µM

COc1ccc2[nH]c3c(=O)n(CCCCC(=O)NCCC(C)C)c(=S)[nH]c3c2c1
activity change, negative = inhibition [2]: -5.72 (inactive)

COc1cc2c(cc1[N+](=O)[O-])-c1ccc([N+](=O)[O-])cc1C2
activity change, negative = inhibition [2]: -48.1 (inactive)
AC50 [1]: 0.378 µM

CCOC(=O)c1c(NC(=O)Cc2cccs2)sc(C)c1C
activity change, negative = inhibition [2]: 12.4 (inactive)
AC50 [1]: > 100 µM

C[C@@H]1CCCCO[C@H](CN(C)C(=O)CCCN(C)C)[C@H](C)CN([C@@H](C)CO)C(=O)c2cc(NC(=O)Nc3cccc4ccccc34)ccc2O1
activity change, negative = inhibition [2]: 21.7 (inactive)
AC50 [1]: > 100 µM
